Data from article PMC12635268, “Novel antimicrobial peptides and peptide-microbiome crosstalk in Appalachian salamander skin” (NPJ Biofilms and Microbiomes, 2025).
Where two headings read alike, the source gives them in different places. Ends that are not written are not given here.

Assays:
P. aeruginosa PA01 (Si) = experiment: microbe, parasite or virus in culture; type: cell-based; details: P. aeruginosa PA01 (Si), not typical ESKAPEE strain; Week 2 (12/14/2023)
Excerpt: Supplement 41522_2025_837_MOESM13_ESM.xlsx, sheet "Table_S13_ESKAPEE-MIC" | column: Bacterial MIC (µg/mL)

[1] = set-up: method as in Biomatik (vendor); details: 1.0 mg peptide in 1.0 ml solvent; peptides synthesized by Biomatik; ref Biomatik (vendor); cited from earlier work
P. aeruginosa PA01 = experiment: microbe, parasite or virus in culture; type: cell-based; details: P. aeruginosa 15692 (PAO1); Week 2 (12/14/2023)
Method: Antimicrobial susceptibility testing of the 20 synthesized peptides against 17 bacterial strains of clinical relevance in the ESKAPEE panel was conducted using minimum inhibitory concentration (MIC) assays following the broth microdilution method outlined by Parker et al.[91]. The ESKAPEE panel is comprised of fourteen American Type Culture Collection (ATCC) strains and three Multidrug Resistant Organism Repository and Surveillance Network (MRSN) bacterial strains. These strains represent at least one drug-susceptible strain and one drug-resistant strain for each bacterium to assess drug efficacy across various resistance mechanisms. This panel is comprised of the following bacterial species and strains: E. faecium (ATCC 19434, ATCC 49224), S. aureus (ATCC 25923, ATCC 43300), K. pneumoniae (ATCC 700603, ATCC 13883, MRSN 1320), A. baumannii (ATCC 17978, ATCC 19606, MRSN 959), P. aeruginosa (ATCC 15692, ATCC 27853, MRSN 5519), E. cloacae (ATCC 13047, ATCC 35549), and E. coli (ATCC 35218, ATCC 43888). Bacteria were grown in cation-adjusted Mueller-Hinton broth (CAMHB) to achieve a final inoculum of 1 × 10⁵ CFU/mL. CAMHB is selected for its batch-to-batch reproducibility, low levels of antimicrobial inhibitors, and ability to support the growth of most bacterial pathogens.
Briefly, lyophilized peptides were dissolved in 0.2% TFA + 0.4% BSA in water to 2.56 mg/mL, ultrasonicated for 20 min, diluted 10-fold into CAMHB, and then serially diluted 2-fold in 0.02% TFA + 0.04% BSA in CAMHB and assayed at a concentration of 0.25 to 128 μg/mL. Assays were set up using the Tecan Freedom EVO liquid handling robot and software (Tecan, Switzerland) with 50 μL of bacterial inoculum and 50 μL of peptide transferred into round-bottom 96-well microtiter plates. Each plate assay was performed in duplicate and incubated at 37 °C for 20 h without agitation. Bacterial growth was assessed using the BIOMIC V3 Image Analysis system (Giles Scientific, USA) and the MIC values were determined visually according to the Clinical and Laboratory Standards Institute (CLSI) guidelines.

A. baumannii ATCC 19606 = experiment: microbe, parasite or virus in culture; details: A. baumannii 19606; Week 2 (12/14/2023)
Summary of the method: (§1)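 Peptides tested 0.25–128 μg/mL (2-fold dilutions, TFA/BSA carrier) against 1 × 10⁵ CFU/mL inoculum in CAMHB, duplicates.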

S. aureus ATCC 25923 = experiment: microbe, parasite or virus in culture; details: S. aureus 25923; Week 2 (12/14/2023)
Summary of the method: as §1

P. aeruginosa MRSN 5519 = experiment: microbe, parasite or virus in culture; details: P. aeruginosa 5519; Week 2 (12/14/2023)
Summary of the method: as §1

E. faecium ATCC 49224 = experiment: microbe, parasite or virus in culture; details: E. faecium 49224; Week 2 (12/14/2023)
Summary of the method: as §1

[2] = system: K. pneumoniae ATCC 700603; experiment: microbe, parasite or virus in culture; details: K. pneumoniae 700603; Week 2 (12/14/2023)
Summary of the method: as §1

S. aureus ATCC 43300 = experiment: microbe, parasite or virus in culture; details: S. aureus 43300; Week 2 (12/14/2023)
Summary of the method: as §1

E. faecium ATCC 19434 = experiment: microbe, parasite or virus in culture; details: E. faecium 19434; Week 2 (12/14/2023)
Summary of the method: as §1

E. coli ATCC 43888 = experiment: microbe, parasite or virus in culture; details: E. coli 43888; Week 2 (12/14/2023)
Summary of the method: as §1

E. cloacae ATCC 35549 = experiment: microbe, parasite or virus in culture; details: E. cloacae 35549; Week 2 (12/14/2023)
Summary of the method: as §1

A. baumannii ATCC 17978 = experiment: microbe, parasite or virus in culture; details: A. baumannii 17978; Week 2 (12/14/2023)
Summary of the method: as §1

P. aeruginosa ATCC 27853 = experiment: microbe, parasite or virus in culture; details: P. aeruginosa 27853; Week 2 (12/14/2023)
Summary of the method: as §1

E. cloacae ATCC 13047 = experiment: microbe, parasite or virus in culture; details: E. cloacae 13047; Week 2 (12/14/2023)
Summary of the method: as §1

E. coli ATCC 35218 = experiment: microbe, parasite or virus in culture; details: E. coli 35218; Week 2 (12/14/2023)
Summary of the method: as §1

K. pneumoniae ATCC 13883 = experiment: microbe, parasite or virus in culture; details: K. pneumoniae 13883; Week 2 (12/14/2023)
Summary of the method: as §1

[3] = system: Batrachochytrium dendrobatidis Bd-GPL strain JEL404; details: for Bd inhibition score (percent inhibition), mean: slope of growth, positive = inhibition, negative = no inhibition
Method: Bd-peptide challenge assays were conducted with the crude peptides extracted from the salamander skin secretions and with the 20 synthesized peptides. We followed methods by Pereria et al.[49] to conduct assays with the crude peptides using Bd-GPL strain JEL404 at 1 × 10^6 zoospores/mL. Briefly, skin peptide samples were pooled together based on species-site-injection (Table 1). Skin peptides samples were serially diluted 2-fold in MilliQ (Ultrapure Type 1) water and assayed at a concentration of 2.35–75 μg/mL based on starting peptide concentration available. For synthesized peptides, we conducted assays from 15.6 to 500 μg/ml. In both assays, we quantified percent inhibition of each well using slope of growth[90] in which positive values indicate inhibition and negative values indicate no inhibition.

A. baumannii 5075 = details: Week 2 (12/14/2023)
K. pneumoniae 4640 = details: K. pneumoniae 4640; Week 2 (12/14/2023)
[4] = synthesized peptide 15.625 μg/mL
[5] = synthesized peptide 31.25 μg/mL

Sequence | Bacterial MIC (P. aeruginosa PA01 (Si)) [µg/mL] | Suggest solvent (solubility) [1] | Bacterial MIC (P. aeruginosa PA01) [µg/mL] | Bacterial MIC (A. baumannii ATCC 19606) [µg/mL] | Bacterial MIC (S. aureus ATCC 25923) [µg/mL] | Bacterial MIC (P. aeruginosa MRSN 5519) [µg/mL] | Bacterial MIC (E. faecium ATCC 49224) [µg/mL] | Bacterial MIC [2] [µg/mL] | Bacterial MIC (S. aureus ATCC 43300) [µg/mL] | Bacterial MIC (E. faecium ATCC 19434) [µg/mL] | Bacterial MIC (E. coli ATCC 43888) [µg/mL] | Bacterial MIC (E. cloacae ATCC 35549) [µg/mL] | Bacterial MIC (A. baumannii ATCC 17978) [µg/mL] | Bacterial MIC (P. aeruginosa ATCC 27853) [µg/mL] | Bacterial MIC (E. cloacae ATCC 13047) [µg/mL] | Bacterial MIC (E. coli ATCC 35218) [µg/mL] | Bacterial MIC (K. pneumoniae ATCC 13883) [µg/mL] | Bd inhibition score (percent inhibition), mean [3, 4] [%] | Bd inhibition score (percent inhibition), mean [3, 5] [%] | Bd inhibition score (percent inhibition), mean ([3]; synthesized peptide 62.5 μg/mL) [%] | also measured
EPVPPGFTPFR [PrAd-Eb13] | >128.000 | 1.0mg peptide soluble in 1.0ml H2O | >128.000 | >128.000 | >128.000 | >128.000 | >128.000 | >128.000 | >128.000 | >128.000 | >128.000 | >128.000 | >128.000 | >128.000 | >128.000 | >128.000 | >128.000 | -15.8993 | -14.7717 | -15.0589 | Bd inhibition score (percent inhibition), mean ([3]; synthesized peptide 125 μg/mL): -17.1018%; Bd inhibition score (percent inhibition), mean ([3]; synthesized peptide 250 μg/mL): -17.5569%; Bd inhibition score (percent inhibition), mean ([3]; synthesized peptide 500 μg/mL): -12.696%; Bacterial MIC (A. baumannii 5075): >128.000 µg/mL; Bacterial MIC (K. pneumoniae 4640): >128.000 µg/mL
FPRPPGFTPFR [PrAd-Eb12] | >128.000 | 1.0mg peptide soluble in 1.0ml H2O | >128.000 | >128.000 | >128.000 | >128.000 | >128.000 | >128.000 | >128.000 | >128.000 | >128.000 | >128.000 | >128.000 | >128.000 | >128.000 | >128.000 | >128.000 | -2.358 | 4.727 | 5.096 | Bd inhibition score (percent inhibition), mean ([3]; synthesized peptide 125 μg/mL): 3.64%; Bd inhibition score (percent inhibition), mean ([3]; synthesized peptide 250 μg/mL): 0.8166%; Bd inhibition score (percent inhibition), mean ([3]; synthesized peptide 500 μg/mL): 9.489%; mild Bd inhibition, average across concentrations ([3]; synthesized peptide, concentrations down to 31.25 μg/mL): 1–9.5%; Bacterial MIC (A. baumannii 5075): >128.000 µg/mL; Bacterial MIC (K. pneumoniae 4640): >128.000 µg/mL
RMIRRPPGFTPFR [PrAd-Eb10] | >128.000 | 1.0mg peptide soluble in 1.0ml H2O | >128.000 | >128.000 | >128.000 | >128.000 | >128.000 | >128.000 | >128.000 | >128.000 | >128.000 | >128.000 | >128.000 | >128.000 | >128.000 | >128.000 | >128.000 | -10.4305 | -6.071 | -6.0656 | Bd inhibition score (percent inhibition), mean ([3]; synthesized peptide 125 μg/mL): -13.7553%; Bd inhibition score (percent inhibition), mean ([3]; synthesized peptide 250 μg/mL): -14.8924%; Bd inhibition score (percent inhibition), mean ([3]; synthesized peptide 500 μg/mL): -12.1229%; Bacterial MIC (A. baumannii 5075): >128.000 µg/mL; Bacterial MIC (K. pneumoniae 4640): >128.000 µg/mL
